Experiment [1] has as its system Cytomegalovirus. Nature of the experiment: Tested for its effect on replication of cytomegalovirus (CMV) at the dose up to 100 ug/mL; NE: No effect on replication. The format is functional, organism-based.
Experiment [2] relates to Human alphaherpesvirus 1. Nature of the experiment: Tested for its effect on replication of herpes simplex type-1 (HSV-1) at the dose up to 100 ug/mL; NE: No effect on replication. The format is functional, organism-based.
In a further experiment the test system is MRC5. Nature of the experiment: Tested for inhibition of DNA synthesis in MRC-5 cells. The format is functional, cell-based. As to conditions: Homo sapiens.
Experiment [3] concerns Human alphaherpesvirus 2. Briefly: Tested for the concentration at which compound showed activity against replication of herpes simplex type-2 (HSV-2). The format is functional, organism-based.
Experiment [4] has as its system Cytomegalovirus. Briefly: Tested for its effect on replication of cytomegalovirus (CMV) at the dose up to 100 ug/mL; NE: No effect on replication. The format is functional, organism-based.
A further experiment relates to Human alphaherpesvirus 3. Briefly: Tested for the concentration at which compound showed activity against its effect on replication of varicella zoster virus. The class given is functional, organism-based.
Experiment [5] relates to Human alphaherpesvirus 1. Nature of the experiment: Tested for concentration at which cytotoxicity was observed in herpes simplex type-1 (HSV-1). The format is functional.
Experiment [6] concerns Human alphaherpesvirus 2. Briefly: Tested for the concentration at which compound showed activity against its effect on replication of herpes simplex type-2 (HSV-2). The format is functional, organism-based.
The subject of experiment [7] is Human alphaherpesvirus 1. Nature of the experiment: Tested for the concentration at which compound showed activity against its effect on replication of herpes simplex type-1 (HSV-1). The format is functional, organism-based.
Experiment [8] deals with Cytomegalovirus. Nature of the experiment: Tested for the concentration at which compound showed activity against its effect on replication of Cytomegalovirus. The format is functional, organism-based. The conditions noted are these: Human betaherpesvirus 5.

Values after ≈ are worked out from the molar mass of the structure shown.

By IC50 is commonly meant the concentration that gives 50% inhibition. High values mean weaker potency in that assay, low ones greater potency in that assay. Consider `Nc1nc(O)c2ncn(OCC/C(=C/Cl)P(=O)(O)O)c2n1`, for which the Activity result with Cytomegalovirus [1] and in the experiment with Human alphaherpesvirus 1 [2] was “No effect” throughout. For the same compound, the IC50 with MRC5 worked out at 17 µg/mL (≈ 50.6 µM); in the experiment with Human alphaherpesvirus 2 [3] it was 25 µg/mL (≈ 74.5 µM).

Turning to `Nc1ncnc2c1ncn2OCC#CP(=O)(O)O`, the Activity result with Human alphaherpesvirus 1 [2] and with Cytomegalovirus [4] was “No effect” each time. For the same compound, the concentration for half-maximal inhibition (IC50) in the experiment with MRC5 is 98 µg/mL (≈ 364 µM); in the experiment on Human alphaherpesvirus 2 [3], 14 µg/mL (≈ 52 µM).

For the compound `Nc1nc(O)c2ncn(OCC#CP(=O)(O)O)c2n1`, the IC50 in the experiment with Human alphaherpesvirus 3 was determined as 3.2 µg/mL (≈ 11.2 µM); in the experiment on Human alphaherpesvirus 2 [6] it was 3.9 µg/mL (≈ 13.7 µM); with Human alphaherpesvirus 1 [7], 6.5 µg/mL (≈ 22.8 µM); in the experiment with MRC5, 4.2 µg/mL (≈ 14.7 µM); with Cytomegalovirus [8] it was 3.8 µg/mL (≈ 13.3 µM). Also, the Dose in the experiment with Human alphaherpesvirus 1 [5] is 30 µg/mL.

(Values after ChEMBL document CHEMBL1127155, “Synthesis and antiviral activity of 9-(phosphonoalkylnyloxy)purines: Novel acyclonucleotides” (Bioorg Med Chem Lett, 1993).)
